From patent US20250034116A1, “1,4-DIHETEROCYCLIC SUBSTITUTED AROMATIC RING OR AROMATIC HETEROCYCLIC COMPOUND AND USE THEREOF” (BeBetter Med Inc., priority 2022, published 2025)

Key:
[1] = test system: CYP enzymes in human liver microsomes (HLM); assay: Inhibition of 20-HETE production in human liver microsomes (HLM); format: biochemical
Method in brief: (§1)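 LC-MS/MS read-out of 20-HETE formation, expressed as activity relative to no-inhibitor control and fitted to a Hill equation for IC50; percent inhibition also given at 1000, 500 or 100 nM. Enzyme sources: recombinant CYP4F2, recombinant CYP4A11, or human or mouse liver microsomes. Each is combined with compound and substrate (400 μM solution) and warmed 10 min at 37 °C, then incubated 25 min at 37 °C after adding NADPH (6 mM solution).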

[2] = test system: CYP enzymes in mouse liver microsomes (MLM); assay: Inhibition of 20-HETE production in mouse liver microsomes (MLM); format: biochemical
Method in brief: as §1

[3] = test system: diet-induced obesity (DIO) mouse model; assay: Experiment 2: compound 2 and 4, weight loss and blood glucose lowering in DIO mouse model; format: in vivo, Male C57BL/6J mice
Source text: Experiment 2 was to study the effects of compound 2 and 4 on weight loss and blood glucose lowering in a diet-induced obesity (DIO) mouse model. Male C57BL/6J mice were purchased from Zhuhai BST Biotechnology Co., Ltd. and housed in a barrier system animal facility. Animals were randomly divided into 4 groups: normal control group, DIO model control group, DIO model compound 2 treatment group, and DIO model compound 4 treatment group, with 4-5 animals per group. The model control group and treatment groups were first fed with high-fat diet (HFD) for 9 weeks (day 63), and then the treatment groups were orally administered with compound 2 or compound 4 at a dose of 50 mg/kg once daily for 4 consecutive weeks, while continuing to receive HFD. Animal weights were measured weekly, and on the last day of treatment, they were fasted overnight but allowed access to water before an oral glucose tolerance test (OGTT).

20-HETE = assay: Experiment 5: level of 20-HETE in DIO mouse model; format: in vivo, Male C57BL/6J mice; conditions: DIO mice, single oral dose 50 mg/kg, 8 hours; most pronounced in the liver and kidneys
Protocol: Experiment 5 was to investigate the effect of compound 2 on regulating the level of 20-HETE in a diet-induced obesity (DIO) mouse model. Male C57BL/6J mice were purchased from Guangdong Vital River Laboratory Animal Technology Co., Ltd. and housed in a barrier system animal facility. After 24 weeks of high-fat diet (HFD) induction, compound 2 was administered at a dose of 50 mg/kg once, and samples were collected after 8 hours to detect the level of 20-HETE. A solvent control group was also set up simultaneously, with 3 animals per group.

[4] = 50 mg/kg orally once daily for 4 weeks, DIO mice

IC50 [1]: 28.7 nM
HLM (% inh @ 500 nM) ([1]; 500 nM): 79.50%
IC50 [2]: 1340 nM
SMILES: O=C1CCCN1CC1CCN(c2ccc(-c3cn[nH]c3)cc2F)CC1 [Compound 2, 1-((1-(2-fluoro-4-(1H-pyrazol-4-yl)phenyl)piperidin-4-yl)methyl)pyrrolidin-2-one]
fasting blood glucose [3, 4]: inhibit the increase in fasting blood glucose
glucose metabolism (OGTT) [3, 4]: enhance glucose metabolism
body weight decrease, of the pre-administration weight ([3]; 50 mg/kg orally once daily, first week of administration, after 9 weeks HFD): 12%-16%
20-HETE levels in the liver, kidneys, and brain tissues compared to the solvent control group (20-HETE): varying degrees of decrease
